# Test system: Genes belonging to other category
# Test: DNA chip mRNA expression in yeast, genes belonging to other category (Table 9)
# Type: cell-based, Saccharomyces cerevisiae S288C
# Outline: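 Cells were grown at 25° C. in YPD, treated at logarithmic phase for 2 h with a chemical at a concentration inhibiting growth but not causing death, and compared with untreated cultures. Labeled cDNA was hybridized to a DNA chip carrying all yeast genes, and the expression ratio was taken from scanner fluorescence.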
compound,measurement,setting,value
"S=C([S-])NCCNC(=S)[S-].[Zn+2] [(11), zinc N,N′-ethylenebis(dithiocarbamate)]",The level of expressed mRNA in the presence of chemical substance/The level of expressed mRNA in the absence of chemical substance,yeast gene YDR427W,1.2
same,The level of expressed mRNA in the presence of chemical substance/The level of expressed mRNA in the absence of chemical substance,yeast gene YDR432W,0.6
same,The level of expressed mRNA in the presence of chemical substance/The level of expressed mRNA in the absence of chemical substance,yeast gene YDR481C,1.2
same,The level of expressed mRNA in the presence of chemical substance/The level of expressed mRNA in the absence of chemical substance,yeast gene YDR488C,0.4
same,The level of expressed mRNA in the presence of chemical substance/The level of expressed mRNA in the absence of chemical substance,yeast gene YDR510W,1.6
same,The level of expressed mRNA in the presence of chemical substance/The level of expressed mRNA in the absence of chemical substance,yeast gene YEL042W,1.6
same,The level of expressed mRNA in the presence of chemical substance/The level of expressed mRNA in the absence of chemical substance,yeast gene YEL066W,1.9
same,The level of expressed mRNA in the presence of chemical substance/The level of expressed mRNA in the absence of chemical substance,yeast gene YER009W,1.4
same,The level of expressed mRNA in the presence of chemical substance/The level of expressed mRNA in the absence of chemical substance,yeast gene YER025W,1.2
same,The level of expressed mRNA in the presence of chemical substance/The level of expressed mRNA in the absence of chemical substance,yeast gene YER039C,1.2
same,The level of expressed mRNA in the presence of chemical substance/The level of expressed mRNA in the absence of chemical substance,yeast gene YER076C,0.7
same,The level of expressed mRNA in the presence of chemical substance/The level of expressed mRNA in the absence of chemical substance,yeast gene YER078C,1.3
same,The level of expressed mRNA in the presence of chemical substance/The level of expressed mRNA in the absence of chemical substance,yeast gene YER107C,0.7
same,The level of expressed mRNA in the presence of chemical substance/The level of expressed mRNA in the absence of chemical substance,yeast gene YER130C,0.9
same,The level of expressed mRNA in the presence of chemical substance/The level of expressed mRNA in the absence of chemical substance,yeast gene YER177W,1.9
same,The level of expressed mRNA in the presence of chemical substance/The level of expressed mRNA in the absence of chemical substance,yeast gene YFL022C,1.2
same,The level of expressed mRNA in the presence of chemical substance/The level of expressed mRNA in the absence of chemical substance,yeast gene YFL028C,1.3
same,The level of expressed mRNA in the presence of chemical substance/The level of expressed mRNA in the absence of chemical substance,yeast gene YFL038C,1.7
same,The level of expressed mRNA in the presence of chemical substance/The level of expressed mRNA in the absence of chemical substance,yeast gene YFL043C,1.1
same,The level of expressed mRNA in the presence of chemical substance/The level of expressed mRNA in the absence of chemical substance,yeast gene YFR006W,1.2
same,The level of expressed mRNA in the presence of chemical substance/The level of expressed mRNA in the absence of chemical substance,yeast gene YFR050C,1.4
same,The level of expressed mRNA in the presence of chemical substance/The level of expressed mRNA in the absence of chemical substance,yeast gene YFR051C,1.3
same,The level of expressed mRNA in the presence of chemical substance/The level of expressed mRNA in the absence of chemical substance,yeast gene YGL094C,0.6
same,The level of expressed mRNA in the presence of chemical substance/The level of expressed mRNA in the absence of chemical substance,yeast gene YGL150C,0.4
same,The level of expressed mRNA in the presence of chemical substance/The level of expressed mRNA in the absence of chemical substance,yeast gene YGL158W,0.2
same,The level of expressed mRNA in the presence of chemical substance/The level of expressed mRNA in the absence of chemical substance,yeast gene YGL207W,0.7
same,The level of expressed mRNA in the presence of chemical substance/The level of expressed mRNA in the absence of chemical substance,yeast gene YGL229C,1.1
same,The level of expressed mRNA in the presence of chemical substance/The level of expressed mRNA in the absence of chemical substance,yeast gene YGR136W,1.3
same,The level of expressed mRNA in the presence of chemical substance/The level of expressed mRNA in the absence of chemical substance,yeast gene YGR189C,1.5
same,The level of expressed mRNA in the presence of chemical substance/The level of expressed mRNA in the absence of chemical substance,yeast gene YGR213C,1.6
same,The level of expressed mRNA in the presence of chemical substance/The level of expressed mRNA in the absence of chemical substance,yeast gene YGR232W,1.3
same,The level of expressed mRNA in the presence of chemical substance/The level of expressed mRNA in the absence of chemical substance,yeast gene YGR239C,1.4
same,The level of expressed mRNA in the presence of chemical substance/The level of expressed mRNA in the absence of chemical substance,yeast gene YGR253C,2.4
same,The level of expressed mRNA in the presence of chemical substance/The level of expressed mRNA in the absence of chemical substance,yeast gene YGR257C,1.2
same,The level of expressed mRNA in the presence of chemical substance/The level of expressed mRNA in the absence of chemical substance,yeast gene YHR004C,0.8
same,The level of expressed mRNA in the presence of chemical substance/The level of expressed mRNA in the absence of chemical substance,yeast gene YHR071W,1.8
same,The level of expressed mRNA in the presence of chemical substance/The level of expressed mRNA in the absence of chemical substance,yeast gene YHR139C,3.5
same,The level of expressed mRNA in the presence of chemical substance/The level of expressed mRNA in the absence of chemical substance,yeast gene YHR142W,1.1
same,The level of expressed mRNA in the presence of chemical substance/The level of expressed mRNA in the absence of chemical substance,yeast gene YHR166C,0.6
same,The level of expressed mRNA in the presence of chemical substance/The level of expressed mRNA in the absence of chemical substance,yeast gene YHR185C,0.7
same,The level of expressed mRNA in the presence of chemical substance/The level of expressed mRNA in the absence of chemical substance,yeast gene YHR195W,1.4
same,The level of expressed mRNA in the presence of chemical substance/The level of expressed mRNA in the absence of chemical substance,yeast gene YHR205W,0.9
same,The level of expressed mRNA in the presence of chemical substance/The level of expressed mRNA in the absence of chemical substance,yeast gene YIL018W,1.2
same,The level of expressed mRNA in the presence of chemical substance/The level of expressed mRNA in the absence of chemical substance,yeast gene YIL123W,1.2
same,The level of expressed mRNA in the presence of chemical substance/The level of expressed mRNA in the absence of chemical substance,yeast gene YIL140W,0.9
same,The level of expressed mRNA in the presence of chemical substance/The level of expressed mRNA in the absence of chemical substance,yeast gene YJL073W,0.5
same,The level of expressed mRNA in the presence of chemical substance/The level of expressed mRNA in the absence of chemical substance,yeast gene YJL089W,0.6
same,The level of expressed mRNA in the presence of chemical substance/The level of expressed mRNA in the absence of chemical substance,yeast gene YJL113W,1.2
same,The level of expressed mRNA in the presence of chemical substance/The level of expressed mRNA in the absence of chemical substance,yeast gene YJL116C,2.9
same,The level of expressed mRNA in the presence of chemical substance/The level of expressed mRNA in the absence of chemical substance,yeast gene YJL138C,1.2

# From US8192962B2, “Processes for detecting toxic substances” (Daikin Industries, Ltd., priority 2001, dated 2012)
